One experiment concerns the target T1, CaMK2alpha (Homo sapiens, UniProt Q9UQM7).
T1 construct: purchased Eurofins Pharma Discovery Services (KinaseProfiler; Cerep BioPrint panel)
In words: BioPrint panel: CaMK2alpha (h). The following applies: 1 micromolar, read-out: percentage of inhibition of activity. It is filed as biochemical. An excerpt: (§1) Supplement pone.0189247.s004.xlsx, sheet "Bioprint Selectivity Panel" | column: %

Another experiment concerns GABA transporter. In words: BioPrint panel: GABA transporter (antagonist). It is filed as binding. The following applies: 1 micromolar.
Source text: as §1

The target of the next experiment is PDE2A1 (Homo sapiens, UniProt O00408). In words: BioPrint panel: PDE2A1 (h). The following applies: 1 micromolar, read-out: percentage of inhibition of activity. It is filed as biochemical.
Sequence of PDE2A1 (O00408 49-941 limits assumed): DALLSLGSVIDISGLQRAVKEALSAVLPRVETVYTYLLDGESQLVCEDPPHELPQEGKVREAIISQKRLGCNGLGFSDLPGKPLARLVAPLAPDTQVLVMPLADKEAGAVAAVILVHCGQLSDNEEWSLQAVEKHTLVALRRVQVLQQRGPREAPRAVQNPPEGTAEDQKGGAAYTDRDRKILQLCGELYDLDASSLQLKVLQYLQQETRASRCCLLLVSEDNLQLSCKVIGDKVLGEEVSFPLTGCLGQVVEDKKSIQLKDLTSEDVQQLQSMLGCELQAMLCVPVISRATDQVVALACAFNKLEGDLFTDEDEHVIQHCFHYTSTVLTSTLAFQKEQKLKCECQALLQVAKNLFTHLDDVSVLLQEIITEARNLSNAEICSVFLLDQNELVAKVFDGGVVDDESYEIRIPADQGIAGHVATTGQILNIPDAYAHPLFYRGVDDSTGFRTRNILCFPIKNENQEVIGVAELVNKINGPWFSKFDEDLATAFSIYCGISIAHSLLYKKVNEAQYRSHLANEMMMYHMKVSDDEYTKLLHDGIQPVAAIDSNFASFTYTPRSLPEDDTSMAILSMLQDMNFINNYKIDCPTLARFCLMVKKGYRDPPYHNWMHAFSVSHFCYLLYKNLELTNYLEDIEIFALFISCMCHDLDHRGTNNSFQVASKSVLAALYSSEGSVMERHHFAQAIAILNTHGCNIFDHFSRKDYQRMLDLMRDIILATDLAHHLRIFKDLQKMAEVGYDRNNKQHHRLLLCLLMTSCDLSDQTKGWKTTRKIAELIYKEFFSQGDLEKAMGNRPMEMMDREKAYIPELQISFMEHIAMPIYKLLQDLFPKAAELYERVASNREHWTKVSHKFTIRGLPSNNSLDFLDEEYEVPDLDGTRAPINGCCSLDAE
Source text: as §1

Another experiment concerns the target T2, 5-HT6 (Homo sapiens, UniProt P50406).
T2 construct: purchased Eurofins Pharma Discovery Services (KinaseProfiler; Cerep BioPrint panel)
In words: BioPrint panel: 5-HT6 (h) (agonist). The following applies: 1 micromolar, read-out: percentage of inhibition of activity. It is filed as binding.
Source text: as §1

The next experiment has as its target T3, LXRbeta (Homo sapiens, UniProt P55055).
T3 construct: purchased Eurofins Pharma Discovery Services (KinaseProfiler; Cerep BioPrint panel)
As to the kind of experiment: BioPrint panel: LXRbeta (h) (agonist). It is filed as binding. Particulars: 1 micromolar, read-out: percentage of inhibition of activity.
Source text: as §1

A further experiment addresses T4, Abl (Homo sapiens, UniProt P00519).
T4 construct: purchased Eurofins Pharma Discovery Services (KinaseProfiler; Cerep BioPrint panel)
In words: BioPrint panel: Abl kinase (h). It is filed as biochemical. Particulars: 1 micromolar, read-out: percentage of inhibition of activity.
Source text: as §1

A further experiment concerns the target T5, 5-HT1A (Homo sapiens, UniProt P08908).
T5 construct: purchased Eurofins Pharma Discovery Services (KinaseProfiler; Cerep BioPrint panel)
In words: BioPrint panel: 5-HT1A (h) (agonist). It is filed as binding. The following applies: 1 micromolar, read-out: percentage of inhibition of activity.
Source text: as §1

The next experiment concerns the target T6, COX2 (Homo sapiens, UniProt P35354).
T6 construct: purchased Eurofins Pharma Discovery Services (KinaseProfiler; Cerep BioPrint panel)
As to the kind of experiment: BioPrint panel: COX2 (h). It is filed as biochemical. Particulars: 1 micromolar, read-out: percentage of inhibition of activity.
Source text: as §1

In a further experiment the test system is Cl- channel (GABA-gated). As to the kind of experiment: BioPrint panel: Cl- channel (GABA-gated) (antagonist). It is filed as binding. Particulars: 1 micromolar.
Source text: as §1

Another experiment has as its target T7, PAF (Homo sapiens, UniProt P25105).
T7 construct: purchased Eurofins Pharma Discovery Services (KinaseProfiler; Cerep BioPrint panel)
In words: BioPrint panel: PAF (h) (agonist). The following applies: 1 micromolar, read-out: percentage of inhibition of activity. It is filed as binding.
Source text: as §1

The target of the next experiment is T8, NK1 (Homo sapiens, UniProt P25103).
T8 construct: purchased Eurofins Pharma Discovery Services (KinaseProfiler; Cerep BioPrint panel)
T8 sequence (P25103 whole entry): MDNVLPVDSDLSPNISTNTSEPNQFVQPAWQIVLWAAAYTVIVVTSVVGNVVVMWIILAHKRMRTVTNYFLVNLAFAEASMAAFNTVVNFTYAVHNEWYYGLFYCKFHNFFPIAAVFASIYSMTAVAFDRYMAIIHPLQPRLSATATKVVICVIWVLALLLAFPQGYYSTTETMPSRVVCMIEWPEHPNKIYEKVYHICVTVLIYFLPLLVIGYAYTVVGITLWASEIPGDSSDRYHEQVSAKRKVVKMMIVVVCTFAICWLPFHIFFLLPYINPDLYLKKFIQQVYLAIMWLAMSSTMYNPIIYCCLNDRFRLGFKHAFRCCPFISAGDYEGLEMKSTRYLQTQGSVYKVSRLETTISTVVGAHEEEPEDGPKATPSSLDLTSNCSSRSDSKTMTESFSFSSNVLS
As to the kind of experiment: BioPrint panel: NK1 (h) (agonist). It is filed as binding. Particulars: 1 micromolar, read-out: percentage of inhibition of activity.
Source text: as §1

Another experiment concerns the target T9, Y1 (Homo sapiens, UniProt P25929).
T9 construct: purchased Eurofins Pharma Discovery Services (KinaseProfiler; Cerep BioPrint panel)
In words: BioPrint panel: Y1 (h) (agonist). It is filed as binding. Particulars: 1 micromolar, read-out: percentage of inhibition of activity.
Source text: as §1

The next experiment has as its target T10, ZAP-70 (Homo sapiens, UniProt P43403).
T10 construct: purchased Eurofins Pharma Discovery Services (KinaseProfiler; Cerep BioPrint panel)
T10 sequence (P43403 1-619): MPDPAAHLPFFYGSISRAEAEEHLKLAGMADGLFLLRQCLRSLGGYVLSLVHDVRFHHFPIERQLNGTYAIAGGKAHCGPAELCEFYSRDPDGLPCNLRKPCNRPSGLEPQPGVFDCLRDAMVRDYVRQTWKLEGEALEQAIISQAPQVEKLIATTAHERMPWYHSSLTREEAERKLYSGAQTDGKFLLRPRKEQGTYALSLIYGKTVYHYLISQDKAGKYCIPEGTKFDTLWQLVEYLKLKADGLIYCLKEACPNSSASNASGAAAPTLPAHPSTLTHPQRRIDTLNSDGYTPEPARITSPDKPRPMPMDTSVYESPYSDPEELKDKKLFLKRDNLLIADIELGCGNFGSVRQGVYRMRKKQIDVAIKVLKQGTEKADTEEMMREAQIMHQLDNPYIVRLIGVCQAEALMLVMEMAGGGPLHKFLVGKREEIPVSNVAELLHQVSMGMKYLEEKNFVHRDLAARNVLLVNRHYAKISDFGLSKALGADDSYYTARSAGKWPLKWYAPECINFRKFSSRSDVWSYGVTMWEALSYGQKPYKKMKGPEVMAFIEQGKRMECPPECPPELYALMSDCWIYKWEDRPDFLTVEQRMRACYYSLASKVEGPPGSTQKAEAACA
As to the kind of experiment: BioPrint panel: ZAP70 kinase (h). It is filed as biochemical. Particulars: 1 micromolar, read-out: percentage of inhibition of activity.
Source text: as §1

In a further experiment the target is T11, 5-HT2A (Homo sapiens, UniProt P28223).
T11 construct: purchased Eurofins Pharma Discovery Services (KinaseProfiler; Cerep BioPrint panel)
T11 sequence (P28223 whole entry): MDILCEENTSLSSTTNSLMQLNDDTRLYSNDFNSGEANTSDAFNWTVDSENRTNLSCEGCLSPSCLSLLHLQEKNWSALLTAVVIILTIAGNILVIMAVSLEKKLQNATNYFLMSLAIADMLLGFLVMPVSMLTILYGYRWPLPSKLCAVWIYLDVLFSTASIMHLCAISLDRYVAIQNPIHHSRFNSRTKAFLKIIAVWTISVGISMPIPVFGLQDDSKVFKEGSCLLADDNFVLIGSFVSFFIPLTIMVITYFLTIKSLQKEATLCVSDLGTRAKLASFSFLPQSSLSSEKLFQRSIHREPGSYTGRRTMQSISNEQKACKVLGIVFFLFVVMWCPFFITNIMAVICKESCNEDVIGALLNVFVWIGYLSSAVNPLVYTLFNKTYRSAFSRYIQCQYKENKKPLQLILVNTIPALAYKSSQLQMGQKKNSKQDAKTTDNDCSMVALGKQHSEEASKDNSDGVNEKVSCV
In words: BioPrint panel: 5-HT2A (h) (agonist). It is filed as binding. The following applies: 1 micromolar, read-out: percentage of inhibition of activity.
Source text: as §1

Another experiment concerns the target T12, AT2 (Homo sapiens, UniProt P50052).
T12 construct: purchased Eurofins Pharma Discovery Services (KinaseProfiler; Cerep BioPrint panel)
In words: BioPrint panel: AT2 (h) (agonist). It is filed as binding. The following applies: 1 micromolar, read-out: percentage of inhibition of activity.
Source text: as §1

The target of a further experiment is T13, M3 (Homo sapiens, UniProt P20309).
T13 construct: purchased Eurofins Pharma Discovery Services (KinaseProfiler; Cerep BioPrint panel)
T13 sequence (P20309 whole entry): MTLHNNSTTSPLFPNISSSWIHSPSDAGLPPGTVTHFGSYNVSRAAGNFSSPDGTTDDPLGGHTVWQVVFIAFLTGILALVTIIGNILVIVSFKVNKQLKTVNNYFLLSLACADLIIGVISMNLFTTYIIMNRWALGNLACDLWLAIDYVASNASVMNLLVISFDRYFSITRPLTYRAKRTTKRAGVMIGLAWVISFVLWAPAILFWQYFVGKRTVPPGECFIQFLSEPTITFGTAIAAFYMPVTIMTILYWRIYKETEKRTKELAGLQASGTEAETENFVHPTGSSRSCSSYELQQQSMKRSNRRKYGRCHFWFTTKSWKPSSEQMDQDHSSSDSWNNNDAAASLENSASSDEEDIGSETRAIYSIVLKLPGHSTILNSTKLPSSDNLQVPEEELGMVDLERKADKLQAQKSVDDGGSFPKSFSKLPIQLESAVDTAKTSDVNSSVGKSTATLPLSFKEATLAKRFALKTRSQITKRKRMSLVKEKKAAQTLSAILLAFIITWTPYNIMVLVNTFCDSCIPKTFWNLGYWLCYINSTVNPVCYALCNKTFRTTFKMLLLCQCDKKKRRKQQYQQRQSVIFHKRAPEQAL
As to the kind of experiment: BioPrint panel: M3 (h) (antagonist). The following applies: 1 micromolar, read-out: percentage of inhibition of activity. It is filed as binding.
Source text: as §1

The next experiment deals with T14, 5-HT2C (Homo sapiens, UniProt P28335).
T14 construct: purchased Eurofins Pharma Discovery Services (KinaseProfiler; Cerep BioPrint panel)
As to the kind of experiment: BioPrint panel: 5-HT2C (h) (agonist). It is filed as binding. The following applies: 1 micromolar, read-out: percentage of inhibition of activity.
Source text: as §1

For a further experiment, the target named is p38α (Homo sapiens, UniProt Q16539). In words: enzymatic p38 activity. It is filed as biochemical.
Sequence of p38α (Q16539 whole entry): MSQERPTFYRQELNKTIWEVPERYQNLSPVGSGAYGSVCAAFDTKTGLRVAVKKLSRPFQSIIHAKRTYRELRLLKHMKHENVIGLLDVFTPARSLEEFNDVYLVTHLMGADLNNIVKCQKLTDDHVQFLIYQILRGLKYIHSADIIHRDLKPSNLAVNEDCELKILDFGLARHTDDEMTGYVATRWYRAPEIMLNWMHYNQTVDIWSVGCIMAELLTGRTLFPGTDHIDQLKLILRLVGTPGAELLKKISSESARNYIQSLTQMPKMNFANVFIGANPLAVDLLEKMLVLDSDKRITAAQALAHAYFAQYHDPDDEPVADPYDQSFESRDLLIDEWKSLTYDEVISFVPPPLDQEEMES

“And” between values parts separate entries of the source, which are not always exact repeats. Equal entries are not always repeated. Where two headings read alike, the source gives them in different places.

T2 sequence (P50406 whole entry): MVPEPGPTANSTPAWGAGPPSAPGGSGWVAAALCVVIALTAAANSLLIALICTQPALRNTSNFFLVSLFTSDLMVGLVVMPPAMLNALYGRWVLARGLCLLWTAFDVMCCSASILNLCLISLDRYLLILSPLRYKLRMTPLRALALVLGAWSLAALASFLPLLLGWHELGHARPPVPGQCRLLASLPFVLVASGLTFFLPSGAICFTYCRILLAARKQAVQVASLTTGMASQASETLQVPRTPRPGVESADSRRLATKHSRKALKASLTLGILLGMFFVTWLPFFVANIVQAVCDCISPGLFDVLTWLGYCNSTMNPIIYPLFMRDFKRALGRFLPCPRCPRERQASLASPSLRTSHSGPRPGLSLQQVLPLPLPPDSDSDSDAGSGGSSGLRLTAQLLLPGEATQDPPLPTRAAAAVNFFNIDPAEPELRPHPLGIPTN
T5 sequence (P08908 whole entry): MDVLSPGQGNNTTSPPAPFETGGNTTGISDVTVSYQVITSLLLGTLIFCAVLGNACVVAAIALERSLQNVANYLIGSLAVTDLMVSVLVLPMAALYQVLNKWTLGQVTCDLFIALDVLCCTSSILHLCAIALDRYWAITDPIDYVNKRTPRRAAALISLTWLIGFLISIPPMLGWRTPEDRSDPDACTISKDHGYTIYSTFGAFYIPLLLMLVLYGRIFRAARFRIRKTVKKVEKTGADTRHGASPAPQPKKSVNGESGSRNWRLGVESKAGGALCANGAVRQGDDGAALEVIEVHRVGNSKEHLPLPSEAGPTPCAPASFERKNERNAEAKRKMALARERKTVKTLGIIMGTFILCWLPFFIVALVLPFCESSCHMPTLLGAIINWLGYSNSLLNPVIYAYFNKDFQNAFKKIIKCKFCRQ
T12 sequence (P50052 whole entry): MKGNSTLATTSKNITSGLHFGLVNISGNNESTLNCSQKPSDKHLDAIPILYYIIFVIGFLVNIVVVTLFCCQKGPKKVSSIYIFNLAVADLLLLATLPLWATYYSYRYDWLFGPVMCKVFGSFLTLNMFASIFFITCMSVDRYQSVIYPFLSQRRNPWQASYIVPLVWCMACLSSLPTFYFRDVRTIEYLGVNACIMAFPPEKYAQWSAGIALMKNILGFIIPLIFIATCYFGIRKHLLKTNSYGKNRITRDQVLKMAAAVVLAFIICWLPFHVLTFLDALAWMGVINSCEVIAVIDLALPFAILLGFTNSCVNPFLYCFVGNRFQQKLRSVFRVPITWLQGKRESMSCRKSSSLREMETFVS
T1 sequence (Q9UQM7 whole entry): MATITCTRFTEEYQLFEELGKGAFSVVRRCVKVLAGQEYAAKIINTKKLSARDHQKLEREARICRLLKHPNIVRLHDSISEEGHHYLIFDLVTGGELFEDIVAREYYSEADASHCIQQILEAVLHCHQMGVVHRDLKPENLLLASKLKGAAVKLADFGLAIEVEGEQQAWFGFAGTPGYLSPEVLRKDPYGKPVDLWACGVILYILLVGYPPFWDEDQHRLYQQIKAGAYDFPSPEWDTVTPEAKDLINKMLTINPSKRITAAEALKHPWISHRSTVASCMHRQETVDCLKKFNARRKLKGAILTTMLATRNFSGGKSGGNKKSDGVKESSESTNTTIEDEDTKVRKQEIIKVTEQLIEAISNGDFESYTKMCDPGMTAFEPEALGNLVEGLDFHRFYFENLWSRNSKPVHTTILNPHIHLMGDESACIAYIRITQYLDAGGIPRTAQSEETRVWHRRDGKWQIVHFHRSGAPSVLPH
T9 sequence (P25929 whole entry): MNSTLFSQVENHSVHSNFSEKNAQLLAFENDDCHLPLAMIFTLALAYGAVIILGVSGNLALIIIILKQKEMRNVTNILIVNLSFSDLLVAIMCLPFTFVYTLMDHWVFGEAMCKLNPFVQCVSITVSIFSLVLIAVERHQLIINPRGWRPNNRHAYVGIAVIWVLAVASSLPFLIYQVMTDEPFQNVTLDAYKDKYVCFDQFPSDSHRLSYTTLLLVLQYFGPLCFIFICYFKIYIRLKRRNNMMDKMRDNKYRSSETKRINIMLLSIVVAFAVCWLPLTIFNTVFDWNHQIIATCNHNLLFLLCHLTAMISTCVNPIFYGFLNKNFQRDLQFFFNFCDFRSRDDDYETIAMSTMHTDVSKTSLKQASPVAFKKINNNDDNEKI

`Cn1cc(-c2cccc(-c3nc(C(=O)NC4C5CC6CC4CC(O)(C6)C5)c(N)nc3N)c2)cn1` (stereo not shown) [compound 4]: the inhibition at 1 µM was -53.9% on CaMK2alpha; 6.7% at PDE2A1; -5.3% at 5-HT6; 4.1% on LXRbeta; -4.6% at Abl; -1.1% at 5-HT1A. Also, the inhibition at 1 µM at COX2 is -12.1%; at PAF, -2.1%; on NK1, 11.6%; on Y1 it was -9.2%; on ZAP-70, 5.5%; at 5-HT2A it was 2.4%. In addition, the inhibition at 1 µM was -8% at AT2, -0.3% at M3 and -17.7% at 5-HT2C. Further, the “percentage of inhibition of activity” value in the experiment with GABA transporter was determined as 1.1%; in the experiment on Cl- channel (GABA-gated), 0.5%.

Take `COc1c(NC(=O)c2ccc(C)c(-c3nnc4c(NCC(C)(C)C)nccn34)c2)cc(C(C)(C)C)cc1NS(C)(=O)=O` [compound 7, reference compound]: the IC50 was 0.003 µM on p38α (geometric mean, read-out: Activity in reference biochemical assay (IC50, μM) (95% CI) p38α); 0.008 µM and 0.005 µM and 0.001 µM at p38α (individual values, read-out: Biochemical activity (IC50, mM) (p38a)).

These data come from PMC5761851, “Application of a phenotypic drug discovery strategy to identify biological and chemical starting points for inhibition of TSLP production in lung epithelial cells” (PLoS ONE, 2018).
